From patent US20100254965A1, “Adenosine Signaling in Diagnosis, Treatment, and Prevention of Priapism and Erectile Dysfunction” (BOARD OF REGENTS ,THE UNIVERSITY OF TEXAS SYSTEM, priority 2006, published 2010)

Key:
[1] = test system: corpus cavernosal strips (CCS); test: Adenosine-induced relaxation of corpus cavernosal strips (CCS); type: cell-based, mouse
Protocol: FIG. 16. […] CCS of wild type mice were treated with different concentrations of adenosine with or without DCF (5 μM), a specific inhibitor of adenosine deaminase. Then the extent (mN) of force was monitored. (b) CCS of wild type mice were treated with 100 μM adenosine in the presence of different concentrations of DCF (0-100 uM). Then the extent of force was measured. Data are expressed as mean±SE. *p<0.05, adenosine treated versus the control, **p<0.05, DCF treated versus the adenosine treated.
FIG. 17. A2BR signaling is required for adenosine-mediated corpus cavernosal strips (CCS) relaxation. (a) CCS of wild type mice were treated with different concentrations of theophiline (1-10 μM) in the presence or absence of adenosine (100 μM). The force changes were measured by force transducer. Data are expressed as mean±SE. *p<0.05, adenosine treated versus the control, **p<0.05, theophiline treated versus the untreated, N=5. (b) CCS from wild type, A2AR, A1R A2BR and A3R-deficient mice were treated with different concentrations of adenosine. The relaxation was measured by force transducer. Data are expressed as mean±SE. *p<0.05, adenosine treated versus the wild type. (c) CCS were isolated from wild type and A2BR-deficient mice and treated with different concentrations of adenosine in the presence or absence of L-NAME (100 μM) or MRS1706 (10 μM). 10 min after treatment, cellular extracts were collected and cAMP levels were measured by using a commercial enzyme immunoassay kit (Amersham Pharmacia). Data are expressed as mean±SE. *p<0.05, adenosine treated versus the control without treatment; **p<0.05, adenosine treated with MRS1706 versus the adenosine treated alone; ***p<0.05, CCS of A2BR-deficient mice treated with adenosine versus the CCS of wild type mice treated with adenosine. N=6-7. (d) CCS of A2BR and ADA double deficient mice lost the hypersensitivity to nerve stimulation compared to ADA deficient mice.
Function experiments. The tunica albuginea was cut longitudinally, starting at the most proximal point of the corpus cavernosum (CC) toward the penile shaft, and the erectile tissue was partially dissected free from the tunica. One strip of tissue (0.3×0.3×3 mm) was obtained from each corpus cavernosum. The contractility of each isolated corpus cavernosum smooth muscle cells (CCSM) strip was measured using an isometric force transducer (AD Instrument Inc., Georgia, Vt., USA). The strip was mounted in a thermostatically controlled tissue bath containing aerated PSS (mM: 119 NaCl, 4.7 KCl, 24 NaHCO 3, 1.2 KH2PO4, 2.5 CaCl2, 1.2 MgSO4, 0.023 EDTA, and 11 glucose; 5 ml volume, 95% O2 and 5% CO2, 37° C.) and stretched to a resting tension of 0.1 mN. The contractile responses of the strips were analysed by adding 10 μM phenylephrine to the bath, and force changes were recorded in response to drug application and to electrical field stimulation. The particular electrical field stimulation parameters of 0-30V, 30 HZ with a pulse width of approximately 0.5 ms, are commonly used in the mice. […] The changes of cAMP and cGMP contents in CC strips were subsequently measured by commercial enzyme immunoassay kit (Amersham Pharmacia) (see below).

CCS and CCSM = test: Phenylephrine-induced myosin light chain (MLC) phosphorylation, western blot; type: cell-based, mouse; details: intact penile organ culture and CCSM, PE 10 μM, adenosine 100 μM
Protocol: FIG. 18. Adenosine stimulated both cAMP and cGMP induction in corpus cavernosal smooth muscle cells (CCSM) via A2BR activation. (a) Adenosine receptor expression profile in purified primary CCSM. CCSM were purified from adult mouse penes. […] (b) CCSM were isolated and cultured from mouse penes. The cells were switched to serum-free medium and treated with different concentrations of adenosine with or without A2BR antagonist (MRS1706-10 μM), A2AR antagonist (ZM241385-50 nM) or A2AR agonist (CGS-21680-10 μM) alone for 10 min. Then cellular extracts were collected and cAMP levels were measured using an ELISA kit. […] After 10 min treatment, the cellular extracts were collected and cAMP levels were measured by using a commercial enzyme immunoassay kit (Amersham Pharmacia). […] 10 min after treatment, cellular extracts were collected and cGMP levels were measured by using a commercial enzyme immunoassay kit (Amersham Pharmacia). Data are expressed as mean±SE. *p<0.05, adenosine treated versus the control; **p<0.05, adenosine treated with MRS1706 versus the adenosine treated; ***p<0.05, CCS of A2BR-deficient mice treated with adenosine versus the CCS of wild type mice treated with adenosine. […] After 10 min treatment, the cellular extracts were collected and cAMP levels were measured by using a commercial enzyme immunoassay kit (Amersham Pharmacia). […]

How did the CCS relaxation ([1]; A1R, A2AR and A3R deficient mice and wild type mice) turn out when Nc1ncnc2c1ncn2[C@@H]1O[C@H](CO)[C@@H](O)[C@H]1O [adenosine] was run?
Its CCS relaxation is “dose-dependent increase in relaxation”.

And the CCS relaxation ([1]; CCS from A2BR deficient mice)?
The CCS relaxation was “completely absent”.

And the CCS relaxation ([1]; CCS from wild type mice, different concentrations)?
Its CCS relaxation is “induced CCS relaxation in a dosage dependent manner”.

And the “PE-mediated MLC phosphorylation” value (CCS and CCSM)?
The value was “decreased PE-mediated MLC phosphorylation”.
